In EP0745595A1, “3-(3-Aryloxyphenyl)-1-(substituted methyl)-s-triazine-2,4,6-oxo or thiotrione herbicidal agents” (American Cyanamid Company, priority 1995, dated 1996):

Columns and labels:
Assay type in all cases: in vivo
[1] = system: ORYZA SATIVA, L. TEBONNET; test: Preemergence herbicidal evaluation, ORYSAT (Rice, Tebonnet); details: four to five weeks after treatment
Source text: (§1) Results of herbicide evaluation are expressed on a rating scale (0-9). The scale is based upon a visual observation of plant stand, vigor, malformation, size, chlorosis and overall plant appearance as compared with a control.
(§2) The preemergence herbicidal activity of the test compounds of the present invention is exemplified by the following tests in which the seeds of a variety of monocotyledonous and dicotyledonous plants are separately mixed with potting soil and planted on top of approximately one inch of soil in separate pint cups. […] The treated cups are then placed on greenhouse benches, watered and cared for in accordance with conventional greenhouse procedures. From four to five weeks after treatment, the tests are terminated and each cup is examined and rated according to the rating system provided in Example 40.
(§3) The compounds evaluated are reported by compound number given in Example 40.

[2] = system: GLYCINE MAX(L) MERR. CV. WILLIAMS; test: Preemergence herbicidal evaluation, GLXMAW (Soybean, Williams); details: four to five weeks after treatment
In short: (§4)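 First, seeds in potting soil are sown atop soil in cups. Next, the surface is sprayed with test compound in aqueous acetone at roughly 0.125 to 0.50 kg per hectare. After four to five weeks of greenhouse care, each cup is scored 0-9 against a control.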

[3] = system: SETARIA VIRIDIS, (L) BEAU; test: Preemergence herbicidal evaluation, SETVI (Foxtail, Green); details: four to five weeks after treatment
Source text: as §1, §2, §3

SAGITTARIA PYGMAEA, L. = test: Preemergence weed control under flooded paddy conditions, SAGPY (Arrowhead (Pygmaea)); details: preemergence weeds, rated three to four weeks after treatment
In short: (§5)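 Visual 0-9 score (stand, vigor, malformation, size, chlorosis, appearance vs untreated control) taken 3-4 wk after treatment. Test compounds were added into flood water (1.5-3 cm over silt loam) as 50/50 v/v aqueous/acetone, equivalent to about 0.5-0.063 kg/ha a.i.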

[4] = system: ORYZA SATIVA, L. TEBONNET; test: Rice tolerance to post-transplant applications under flooded paddy conditions, ORYSAT (Rice, Tebonnet); details: post-transplant rice, rated three to four weeks after treatment;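 further: applied to flooded soil surface three days after transplanting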
In short: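 Visual 0-9 rating against untreated control (stand, vigor, malformation, size, chlorosis, overall appearance), taken 3-4 weeks after treatment. Flooded silt loam, water at 1.5-3 cm; two 10-day-old seedlings per pot; compound applied to flooded soil surface 3 days post-transplant at ~0.5-0.063 kg/ha.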

[5] = system: ABUTILON THEOPHRASTI, MEDIC.; test: Preemergence herbicidal evaluation, ABUTH (Velvetleaf); details: four to five weeks after treatment
Source text: as §1, §2, §3

[6] = system: ECHINOCHLOA CRUS-GALLI, (L) BEAU; test: Preemergence herbicidal evaluation, ECHCG (Barnyardgrass); details: four to five weeks after treatment
In short: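 In this preemergence herbicide test, cups holding seeds of ECHCG sown in potting soil over roughly one inch of soil were treated and then grown under conventional greenhouse care. Tests were ended four to five weeks after treatment, and injury was scored 0-9 from stand, vigor, malformation, size, chlorosis and overall appearance relative to a control.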

[7] = system: ABUTILON THEOPHRASTI, MEDIC.; test: Postemergence herbicidal evaluation, ABUTH (Velvetleaf); details: rated four to five weeks after treatment, averaged
In short: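 This postemergence herbicide test used two-week-old velvetleaf seedlings grown in jiffy flats. Each compound was sprayed at 40 psi as a dispersion in 50/50 acetone/water with 0.5% TWEEN®20 surfactant. Plants then received routine greenhouse care. After four to five weeks, injury was scored visually on a 0-9 scale against a control, and replicate tests were averaged.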

[8] = system: TRITICUM AESTIVUM, CV. APOLLO; test: Preemergence herbicidal evaluation, TRZAWO (Wheat, Winter, CV. APOLLO); details: four to five weeks after treatment
In short: as §4

CYPERUS IRIA = test: Preemergence weed control under flooded paddy conditions, CYPIR (Rice Flatsedge); details: preemergence weeds, rated three to four weeks after treatment
In short: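 This preemergence test mimicked flooded paddy conditions: rice flatsedge propagules were sown in the upper 0.5 cm of silt loam in undrained 32 oz. containers (10.5 cm diameter), with water held 1.5 to 3 cm over the soil. After normal greenhouse care, plants were scored 0-9 for stand, vigor, malformation, size, chlorosis and appearance relative to controls.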

[…], PRESL. = Preemergence weed control under flooded paddy conditions, MOOVA (Monochoria); details: preemergence weeds, rated three to four weeks after treatment
In short: as §5

[9] = system: CYPERUS SEROTINUS, ROTTB.; test: Preemergence weed control under flooded paddy conditions, CYPSE (Flatsedge); details: preemergence weeds, rated three to four weeks after treatment
In short: as §5

CASSIA OBTUSIFOLIA, L. = test: Preemergence herbicidal evaluation, CASOB (Sicklepod); details: four to five weeks after treatment
In short: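 Preemergence herbicidal activity against sicklepod was assessed by planting seed mixed with potting soil atop about one inch of soil in pint cups. After treatment the cups were watered and handled per standard greenhouse practice. Tests ended four to five weeks later, with plant stand, vigor, malformation, size, chlorosis and overall appearance scored 0-9 relative to a control.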

CHENOPODIUM ALBUM, L. [10] = test: Preemergence herbicidal evaluation, CHEAL (Lambsquarters, Common); details: four to five weeks after treatment
In short: as §4

[11] = system: AMBROSIA ARTEMISIIFOLIA, L.; test: Preemergence herbicidal evaluation, AMBEL (Ragweed, Common); details: four to five weeks after treatment
In short: as §4

CHENOPODIUM ALBUM, L. [12] = test: Postemergence herbicidal evaluation, CHEAL (Lambsquarters, Common); details: rated four to five weeks after treatment, averaged
In short: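 Postemergence herbicidal activity on Chenopodium album was tested by spraying two-week-old seedlings grown in jiffy flats with compound in acetone/water (50/50) plus 0.5% TWEEN®20, using a 40 psi nozzle. Four to five weeks after treatment, stand, vigor, malformation, size, chlorosis and overall appearance were scored 0-9 relative to controls, with repeat tests averaged.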

ZEA MAYS L. = test: Preemergence herbicidal evaluation, ZEAMX (Corn, Field); details: four to five weeks after treatment
In short: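 Preemergence herbicidal activity on field corn: seeds in potting soil were sown atop roughly one inch of soil in separate pint cups, treated, and grown under standard greenhouse care. Four to five weeks post-treatment, stand, vigor, malformation, size, chlorosis and overall appearance were compared with a control and scored 0-9.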

SMILES: CCOC(=O)Cn1c(=O)[nH]c(=O)n(-c2cc(Oc3c(F)cc(C(F)(F)F)cc3Cl)ccc2C#N)c1=O [Compound 10, Ethyl 3-{5-[(2-chloro-α,α,α,6-tetrafluoro-p-tolyl)oxy]-2-cyanophenyl}tetrahydro-2,4,6-trioxo-s-triazine-1(2H)-acetate]
- ORYSAT rating ([1]; Rate 0.125 kg/ha): 2.0
- ORYSAT rating ([1]; Rate 0.250 kg/ha): 2.0
- ORYSAT rating ([1]; Rate 0.500 kg/ha): 2.0
- GLXMAW rating ([2]; Rate 0.125 kg/ha): 0.0
- GLXMAW rating ([2]; Rate 0.250 kg/ha): 0.0
- GLXMAW rating ([2]; Rate 0.500 kg/ha): 0.0
- SETVI rating ([3]; Rate 0.125 kg/ha): 0.0
- SETVI rating ([3]; Rate 0.250 kg/ha): 0.0
- SETVI rating ([3]; Rate 0.500 kg/ha): 0.0
- SAGPY herbicidal rating (SAGITTARIA PYGMAEA, L.; Rate 0.063 kg/ha): 0.0
- SAGPY herbicidal rating (SAGITTARIA PYGMAEA, L.; Rate 0.125 kg/ha): 0.0
- SAGPY herbicidal rating (SAGITTARIA PYGMAEA, L.; Rate 0.250 kg/ha): 0.0
- SAGPY herbicidal rating (SAGITTARIA PYGMAEA, L.; Rate 0.500 kg/ha): 0.0
- ORYSAT herbicidal rating (rice tolerance) ([4]; Rate 0.063 kg/ha): 0.0
- ORYSAT herbicidal rating (rice tolerance) ([4]; Rate 0.125 kg/ha): 1.0
- ORYSAT herbicidal rating (rice tolerance) ([4]; Rate 0.250 kg/ha): 1.0
- ORYSAT herbicidal rating (rice tolerance) ([4]; Rate 0.500 kg/ha): 1.0
- ABUTH rating ([5]; Rate 0.125 kg/ha): 0.0
- ABUTH rating ([5]; Rate 0.250 kg/ha): 0.0
- ABUTH rating ([5]; Rate 0.500 kg/ha): 0.0
- ECHCG rating ([6]; Rate 0.125 kg/ha): 0.0
- ECHCG rating ([6]; Rate 0.250 kg/ha): 0.0
- ECHCG rating ([6]; Rate 0.500 kg/ha): 0.0
- ABUTH, herbicide rating (0-9) ([7]; Rate 0.125 kg/ha): 9.0
- ABUTH, herbicide rating (0-9) ([7]; Rate 0.250 kg/ha): 9.0
- ABUTH, herbicide rating (0-9) ([7]; Rate 0.500 kg/ha): 9.0
- TRZAWO rating ([8]; Rate 0.125 kg/ha): 0.0
- TRZAWO rating ([8]; Rate 0.250 kg/ha): 0.0
- TRZAWO rating ([8]; Rate 0.500 kg/ha): 0.0
- CYPIR herbicidal rating (CYPERUS IRIA; Rate 0.063 kg/ha): 9.0
- CYPIR herbicidal rating (CYPERUS IRIA; Rate 0.125 kg/ha): 9.0
- CYPIR herbicidal rating (CYPERUS IRIA; Rate 0.250 kg/ha): 9.0
- CYPIR herbicidal rating (CYPERUS IRIA; Rate 0.500 kg/ha): 9.0
- MOOVA herbicidal rating ([…], PRESL.; Rate 0.063 kg/ha): 9.0
- MOOVA herbicidal rating ([…], PRESL.; Rate 0.125 kg/ha): 9.0
- MOOVA herbicidal rating ([…], PRESL.; Rate 0.250 kg/ha): 9.0
- MOOVA herbicidal rating ([…], PRESL.; Rate 0.500 kg/ha): 9.0
- CYPSE herbicidal rating ([9]; Rate 0.063 kg/ha): 0.0
- CYPSE herbicidal rating ([9]; Rate 0.125 kg/ha): 0.0
- CYPSE herbicidal rating ([9]; Rate 0.250 kg/ha): 0.0
- CASOB rating (CASSIA OBTUSIFOLIA, L.; Rate 0.125 kg/ha): 0.0
- CASOB rating (CASSIA OBTUSIFOLIA, L.; Rate 0.250 kg/ha): 0.0
- CASOB rating (CASSIA OBTUSIFOLIA, L.; Rate 0.500 kg/ha): 0.0
- CHEAL rating (CHENOPODIUM ALBUM, L. [10]; Rate 0.125 kg/ha): 9.0
- CHEAL rating (CHENOPODIUM ALBUM, L. [10]; Rate 0.250 kg/ha): 9.0
- CHEAL rating (CHENOPODIUM ALBUM, L. [10]; Rate 0.500 kg/ha): 9.0
- AMBEL rating ([11]; Rate 0.125 kg/ha): 0.0
- AMBEL rating ([11]; Rate 0.250 kg/ha): 0.0
- AMBEL rating ([11]; Rate 0.500 kg/ha): 0.0
- CHEAL, herbicide rating (0-9) (CHENOPODIUM ALBUM, L. [12]; Rate 0.125 kg/ha): 9.0
- CHEAL, herbicide rating (0-9) (CHENOPODIUM ALBUM, L. [12]; Rate 0.250 kg/ha): 9.0
- CHEAL, herbicide rating (0-9) (CHENOPODIUM ALBUM, L. [12]; Rate 0.500 kg/ha): 9.0
- ZEAMX rating (ZEA MAYS L.; Rate 0.125 kg/ha): 0.0
- ZEAMX rating (ZEA MAYS L.; Rate 0.250 kg/ha): 0.0
- ZEAMX rating (ZEA MAYS L.; Rate 0.500 kg/ha): 0.0
